Test results published in patent publication US20190152992A1, “BENZODIOXANE DERIVATIVES AND THEIR PHARMACEUTICAL USE” (Orion Corporation, priority 2016, published 2019).
pIC50: −log10 of the molar value.

Key:
[1] = biological target: T1, human alpha2A receptors (Homo sapiens, UniProt P08913); assay: cell-based
T1 sequence (P08913 1-465): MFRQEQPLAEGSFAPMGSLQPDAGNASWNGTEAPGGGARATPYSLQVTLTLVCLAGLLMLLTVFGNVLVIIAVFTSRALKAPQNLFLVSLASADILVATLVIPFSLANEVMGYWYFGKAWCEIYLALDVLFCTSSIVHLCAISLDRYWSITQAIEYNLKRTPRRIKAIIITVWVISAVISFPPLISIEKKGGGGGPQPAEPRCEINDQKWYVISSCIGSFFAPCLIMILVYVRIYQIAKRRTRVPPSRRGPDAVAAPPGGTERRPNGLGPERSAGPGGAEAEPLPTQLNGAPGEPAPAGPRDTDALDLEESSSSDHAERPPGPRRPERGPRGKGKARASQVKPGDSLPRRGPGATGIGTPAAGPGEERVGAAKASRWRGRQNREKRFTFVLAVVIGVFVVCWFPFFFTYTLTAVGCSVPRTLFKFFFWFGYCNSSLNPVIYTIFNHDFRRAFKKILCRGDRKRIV

[2] = biological target: T2, human alpha2C receptors (Homo sapiens, UniProt P18825); assay: Determination of alpha2C antagonistic activity in vitro (FLIPR calcium assay); conditions: for Kb: Alpha 2C Adrenaline Kb, Kb calculated from IC50 with the Cheng-Prusoff equation, adrenaline as agonist, CHO cells, human alpha2C
T2 sequence (P18825 1-462): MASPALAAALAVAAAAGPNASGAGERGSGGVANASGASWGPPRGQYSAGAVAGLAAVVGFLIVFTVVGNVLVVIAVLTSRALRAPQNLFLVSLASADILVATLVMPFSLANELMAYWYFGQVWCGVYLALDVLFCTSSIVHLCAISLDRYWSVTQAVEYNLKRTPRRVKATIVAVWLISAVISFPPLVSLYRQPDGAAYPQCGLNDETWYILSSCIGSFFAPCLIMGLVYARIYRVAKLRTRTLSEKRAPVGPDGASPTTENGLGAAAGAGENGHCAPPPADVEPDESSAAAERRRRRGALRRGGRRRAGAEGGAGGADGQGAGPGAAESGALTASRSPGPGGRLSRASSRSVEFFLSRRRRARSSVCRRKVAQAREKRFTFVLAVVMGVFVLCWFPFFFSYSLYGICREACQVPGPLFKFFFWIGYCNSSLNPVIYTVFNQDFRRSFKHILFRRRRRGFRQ

Compound | pIC50 [1] | Kb [1] [nM] | pIC50 [2] | Kb [2] [nM]
C[C@@H]1NC(=O)N([C@H]2CCCN(C[C@H]3COc4ccccc4O3)C2)C1=O [example 113, (S)-3-((S)-1-(((S)-2,3-Dihydrobenzo[b][1,4]dioxin-2-yl)methyl)-piperidin-3-yl)-5-methylimidazolidine-2,4-dione] | < 5.00 | > 449 | 9.76 | 0.015
CC1C(=O)N([C@H]2CCCN(C[C@H]3COc4ccccc4O3)C2)C(=O)N1C (stereo partly drawn) [example 115, 3-((S)-1-(((S)-2,3-Dihydrobenzo[b][1,4]dioxin-2-yl)methyl)-piperidin-3-yl)-1,5-dimethylimidazolidine-2,4-dione] | < 5.00 | > 449 | 8.68 | 0.21
CC(C)N1C(=O)N([C@H]2CCCN(C[C@H]3COc4ccccc4O3)C2)C(=O)C1(C)C [example 116, 3-((S)-1-(((S)-2,3-Dihydrobenzo[b][1,4]dioxin-2-yl)methyl)-piperidin-3-yl)-1-isopropyl-5,5-dimethylimidazolidine-2,4-dione] | < 5.00 | > 449 | 9.00 | 0.1
CC(C)(C)N1CC(=O)N([C@H]2CCCN(C[C@H]3COc4ccccc4O3)C2)C1=O [example 117, 1-tert-Butyl-3-((S)-1-(((S)-2,3-dihydrobenzo[b][1,4]dioxin-2-yl)methyl)piperidin-3-yl)imidazolidine-2,4-dione] | < 5.00 | > 449 | 8.70 | 0.202
O=C1CN(C2CC2)C(=O)N1[C@H]1CCCN(C[C@H]2COc3ccccc3O2)C1 [example 119, 1-Cyclopropyl-3-((S)-1-(((S)-2,3-dihydrobenzo[b][1,4]dioxin-2-yl)methyl)piperidin-3-yl)imidazolidine-2,4-dione] | < 5.00 | > 449 | 7.76 | 1.76
O=C1CN(C2COC2)C(=O)N1[C@H]1CCCN(C[C@H]2COc3ccccc3O2)C1 [example 120, 3-((S)-1-(((S)-2,3-Dihydrobenzo[b][1,4]dioxin-2-yl)methyl)-piperidin-3-yl)-1-(oxetan-3-yl)imidazolidine-2,4-dione] | < 5.00 | > 449 | 6.88 | 13.3
O=C1CN(C2CC(F)(F)C2)C(=O)N1[C@H]1CCCN(C[C@H]2COc3ccccc3O2)C1 [example 121, 1-(3,3-Difluorocyclobutyl)-3-((S)-1-(((S)-2,3-dihydrobenzo[b][1,4]dioxin-2-yl)methyl)piperidin-3-yl)imidazolidine-2,4-dione] | < 5.00 | > 449 | 7.58 | 2.66
CN1C(=O)N([C@H]2CCCN(C[C@H]3COc4ccccc4O3)C2)C(=O)C12CC2 [example 123, 6-((S)-1-(((S)-2,3-Dihydrobenzo[b][1,4]dioxin-2-yl)methyl)-piperidin-3-yl)-4-methyl-4,6-diazaspiro[2.4]heptane-5,7-dione] | < 5.00 | > 449 | 8.45 | 0.354
CN(C)C(=O)CN1C(=O)N([C@H]2CCCN(C[C@H]3COc4ccccc4O3)C2)C(=O)C12CC2 [example 124, 2-(6-((S)-1-(((S)-2,3-Dihydrobenzo[b][1,4]dioxin-2-yl)methyl)-piperidin-3-yl)-5,7-dioxo-4,6-diazaspiro[2.4]heptan-4-yl)-N,N-dimethylacetamide] | < 5.00 | > 449 | 8.83 | 0.131
O=C1C(=O)N([C@H]2CCCN(C[C@H]3COc4ccccc4O3)C2)C(=O)N1c1ccccc1 [example 129, 1-((S)-1-(((S)-2,3-Dihydrobenzo[b][1,4]dioxin-2-yl)methyl)-piperidin-3-yl)-3-phenylimidazolidine-2,4,5-trione] | < 5.00 | > 449 | 8.80 | 0.162

Results, then the compound that gave them:

pIC50 [1] | Kb [1] [nM] | pIC50 [2] | Kb [2] [nM] | Compound
< 5.00 | > 449 | 9.93 | 0.014 | CN(C)C(=O)CN1CC(=O)N([C@H]2CCCN(C[C@H]3COc4ccccc4O3)C2)C1=O [example 109, 2-(3-((S)-1-(((S)-2,3-Dihydrobenzo[b][1,4]dioxin-2-yl)methyl)piperidin-3-yl)-2,4-dioxoimidazolidin-1-yl)-N,N-dimethylacetamide]
< 5.00 | > 449 | 9.06 | 0.09 | CN1C(=O)N([C@H]2CCCN(C[C@H]3COc4ccccc4O3)C2)C(=O)C1(C)C [example 111, 3-((S)-1-(((S)-2,3-Dihydrobenzo[b][1,4]dioxin-2-yl)methyl)-piperidin-3-yl)-1,5,5-trimethylimidazolidine-2,4-dione]
< 5.00 | > 449 | 9.80 | 0.02 | C[C@H]1NC(=O)N([C@H]2CCCN(C[C@H]3COc4ccccc4O3)C2)C1=O [example 112, (R)-3-((S)-1-(((S)-2,3-Dihydrobenzo[b][1,4]dioxin-2-yl)methyl)-piperidin-3-yl)-5-methylimidazolidine-2,4-dione]
5.63 | 105 | > 10.00 | < 0.01 | O=C1NC(c2ccccc2)C(=O)N1[C@H]1CCCN(C[C@H]2COc3ccccc3O2)C1 (stereo partly drawn) [example 114, 3-((S)-1-(((S)-2,3-Dihydrobenzo[b][1,4]dioxin-2-yl)methyl)piperidin-3-yl)-5-phenylimidazolidine-2,4-dione]
5.95 | 50 | > 10.00 | < 0.01 | O=C1CN(Cc2ccccc2)C(=O)N1[C@H]1CCCN(C[C@H]2COc3ccccc3O2)C1 [example 118, 1-Benzyl-3-((S)-1-(((S)-2,3-dihydrobenzo[b][1,4]dioxin-2-yl)methyl)-piperidin-3-yl)imidazolidine-2,4-dione]
5.86 | 62 | 9.96 | 0.01 | O=C1NC2(CC2)C(=O)N1[C@H]1CCCN(C[C@H]2COc3ccccc3O2)C1 [example 122, 6-((S)-1-(((S)-2,3-Dihydrobenzo[b][1,4]dioxin-2-yl)methyl)-piperidin-3-yl)-4,6-diazaspiro[2.4]heptane-5,7-dione]
5.41 | 175 | 11.00 | 0.001 | O=C1C(=O)N([C@H]2CCCN(C[C@H]3COc4ccccc4O3)C2)C(=O)N1C1CCCCC1 [example 126, 1-Cyclohexyl-3-((S)-1-(((S)-2,3-dihydrobenzo[b][1,4]dioxin-2-yl)methyl)piperidin-3-yl)imidazolidine-2,4,5-trione]
5.06 | 389 | 10.57 | 0.003 | O=C1C(=O)N([C@H]2CCCN(C[C@H]3COc4ccccc4O3)C2)C(=O)N1C1CCCC1 [example 127, 1-Cyclopentyl-3-((S)-1-(((S)-2,3-dihydrobenzo[b][1,4]dioxin-2-yl)methyl)piperidin-3-yl)imidazolidine-2,4,5-trione]
5.05 | 399 | 8.93 | 0.119 | C[C@H](c1ccccc1)N1C(=O)C(=O)N([C@H]2CCCN(C[C@H]3COc4ccccc4O3)C2)C1=O [example 128, 1-((S)-1-(((S)-2,3-Dihydrobenzo[b][1,4]dioxin-2-yl)methyl)-piperidin-3-yl)-3-((R)-1-phenylethyl)imidazolidine-2,4,5-trione]
